Measurements: ChEMBL document CHEMBL1133250, “Antitumor promoting activities of 3-O-acyl-(-)epigallocatechins” (2000)

What was measured:
Format in all cases: functional
Human gammaherpesvirus 4 [1] = assay: Tested for % viability of Rajii cells, in an in vitro assay for TPA-induced EBV activation at concentration of 1000 (mol ratio / 32 pmol TPA)
Human gammaherpesvirus 4 [2] = assay: In vitro assay for EBV activation in Raji cells induced by 12-O-tetradecanoylphorbol-13-acetate (TPA) at the concentration of 1000 (mol ratio / 32 pmol TPA)
Human gammaherpesvirus 4 [3] = assay: In vitro assay for EBV activation in Raji cells induced by 12-O-tetradecanoylphorbol-13-acetate (TPA) at the concentration of 500 (mol ratio / 32 pmol TPA); (%Viability=>80)
Human gammaherpesvirus 4 [4] = assay: In vitro assay for EBV activation in Raji cells induced by 12-O-tetradecanoylphorbol-13-acetate (TPA) at the concentration of 100 (mol ratio / 32 pmol TPA)
Human gammaherpesvirus 4 [5] = assay: Tested for % viability of Rajii cells, in an in vitro assay for TPA-induced EBV activation at concentration of 500 (mol ratio / 32 pmol TPA)
Human gammaherpesvirus 4 [6] = assay: Tested for % viability of Rajii cells, in an in vitro assay for TPA-induced EBV activation at concentration of 10 (mol ratio / 32 pmol TPA)
Human gammaherpesvirus 4 [7] = assay: In vitro assay for EBV activation in Raji cells induced by 12-O-tetradecanoylphorbol-13-acetate (TPA) at the concentration of 10 (mol ratio / 32 pmol TPA)
Human gammaherpesvirus 4 [8] = assay: Tested for % viability of Rajii cells, in an in vitro assay for TPA-induced EBV activation at concentration of 100 (mol ratio / 32 pmol TPA)

Row | SMILES | Viability (Human gammaherpesvirus 4 [1]) [%] | Activation (Human gammaherpesvirus 4 [2]) [%] | Activation (Human gammaherpesvirus 4 [3]) [%] | Activation (Human gammaherpesvirus 4 [4]) [%] | Viability (Human gammaherpesvirus 4 [5]) [%] | Viability (Human gammaherpesvirus 4 [6]) [%] | Activation (Human gammaherpesvirus 4 [7]) [%] | Viability (Human gammaherpesvirus 4 [8]) [%]
1 | CCCC(=O)O[C@@H]1Cc2c(O)cc(O)cc2O[C@@H]1c1cc(O)c(O)c(O)c1 | 60 | 13.3 | >33.8 | >65.1 | >80 | >80 | >94.5 | >80
2 | CCCCCC(=O)O[C@@H]1Cc2c(O)cc(O)cc2O[C@@H]1c1cc(O)c(O)c(O)c1 | 60 | 12 | >30.8 | >62.4 | >80 | >80 | >93.5 | >80
3 | O=C(Cc1ccccc1)O[C@@H]1Cc2c(O)cc(O)cc2O[C@@H]1c1cc(O)c(O)c(O)c1 | 60 | 15.4 | >37.9 | >67.8 | >80 | >80 | >96.3 | >80
4 | CCc1ccc(C(=O)O[C@@H]2Cc3c(O)cc(O)cc3O[C@@H]2c2cc(O)c(O)c(O)c2)cc1 | 60 | 13.2 | >35.4 | >64.3 | >80 | >80 | >93.4 | >80
5 | CCCCCCC(C)C(=O)O[C@@H]1Cc2c(O)cc(O)cc2O[C@@H]1c1cc(O)c(O)c(O)c1 (stereo partly specified) | 60 | 5 | >15.3 | >54.1 | >80 | >80 | >87.5 | >80
6 | O=C(CCc1ccccc1)O[C@@H]1Cc2c(O)cc(O)cc2O[C@@H]1c1cc(O)c(O)c(O)c1 | 60 | 17.8 | >39 | >68.4 | >80 | >80 | >96.5 | >80
7 | CCCCCCCCC(C)C(=O)O[C@@H]1Cc2c(O)cc(O)cc2O[C@@H]1c1cc(O)c(O)c(O)c1 (stereo partly specified) | 60 | 7.9 | >20.1 | >58.3 | >80 | >80 | >88.9 | >80
8 | CCCCCCCCCCCCCCCC(=O)O[C@@H]1Cc2c(O)cc(O)cc2O[C@@H]1c1cc(O)c(O)c(O)c1 | 60 | 22.7 | >41.6 | >74.3 | >80 | >80 | >100 | >80
9 | Cc1ccc(CC(=O)O[C@@H]2Cc3c(O)cc(O)cc3O[C@@H]2c2cc(O)c(O)c(O)c2)cc1 | 60 | 14 | >35.3 | >65.9 | >80 | >80 | >95.4 | >80
10 | CCCCCCCC(=O)O[C@@H]1Cc2c(O)cc(O)cc2O[C@@H]1c1cc(O)c(O)c(O)c1 | 60 | 6.5 | >19.3 | >56 | >80 | >80 | >89.2 | >80
11 | CCCCCCCCCCCCCC(=O)O[C@@H]1Cc2c(O)cc(O)cc2O[C@@H]1c1cc(O)c(O)c(O)c1 | 60 | 18.3 | >35.2 | >68.4 | >80 | >80 | >100 | >80
12 | CCCCCCCCCCCCCCCCCC(=O)O[C@@H]1Cc2c(O)cc(O)cc2O[C@@H]1c1cc(O)c(O)c(O)c1 | 60 | 31.5 | >64 | >86.9 | >80 | >80 | >100 | >80
13 | CCCCCCCCCC(=O)O[C@@H]1Cc2c(O)cc(O)cc2O[C@@H]1c1cc(O)c(O)c(O)c1 | 60 | 9.3 | >22.7 | >61.4 | >80 | >80 | >91.9 | >80
14 | CCCCCCCCCCCC(=O)O[C@@H]1Cc2c(O)cc(O)cc2O[C@@H]1c1cc(O)c(O)c(O)c1 | 60 | 12.7 | >31.9 | >65.8 | >80 | >80 | >94.2 | >80
15 | Cc1ccc(C(=O)O[C@@H]2Cc3c(O)cc(O)cc3O[C@@H]2c2cc(O)c(O)c(O)c2)cc1 | 60 | 10.4 | >33 | >62.8 | >80 | >80 | >91.7 | >80
16 | Oc1cc(O)c2c(c1)O[C@H](c1cc(O)c(O)c(O)c1)[C@H](O)C2 [EPIGALLOCATECHIN] | 60 | 19.3 | >44.9 | >73 | >80 | >80 | >100 | >80
17 | O=C(O[C@@H]1Cc2c(O)cc(O)cc2O[C@@H]1c1cc(O)c(O)c(O)c1)c1cc(O)c(O)c(O)c1 [EPIGALOCATECHIN GALLATE] | 60 | 15.5 | >35 | >69 | >80 | >80 | >95.9 | >80
